Assay results: ChEMBL document CHEMBL3217615, “Novel 3,5-bis(arylidiene)-4-piperidone based monocarbonyl analogs of curcumin: anticancer activity evaluation and mode of action study” (2014)

Tests used:
Type in all cases: functional
[1] = Growth inhibition of human HCC2998 cells assessed as cell growth at 10^-8 M after 48 hrs by sulforhodamine B assay; details: HCC 2998, 48 h; for growth at 0.01 µM: read-out: Activity; for CC50: read-out: pLC50 (the source's name) (converted); for TGI: read-out: pTGI (converted)
[2] = tested on: ACHN; experiment: Growth inhibition of human ACHN cells after 48 hrs by sulforhodamine B assay; details: for CC50: read-out: LC50 (the source's name)
[3] = tested on: DU-145; experiment: Growth inhibition of human DU145 cells assessed as cell growth at 10^-5 M after 48 hrs by sulforhodamine B assay; details: DU-145, 48 h, read-out: Activity
[4] = Growth inhibition of human HOP92 cells assessed as cell growth at 10^-5 M after 48 hrs by sulforhodamine B assay; details: HOP-92, 48 h, read-out: Activity
[5] = tested on: COLO 205; experiment: Induction of apoptosis in human COLO205 cells at 10 uM after 24 hrs by Annexin V/propidium iodide staining-based fluorescence microscopy
[6] = tested on: NCI-H522; experiment: Growth inhibition of human NCI-H522 cells assessed as cell growth at 10^-5 M after 48 hrs by sulforhodamine B assay; details: NCI-H522, 48 h, read-out: Activity
[7] = tested on: M14; experiment: Growth inhibition of human M14 cells assessed as cell growth at 10^-5 M after 48 hrs by sulforhodamine B assay; details: M14, 48 h, read-out: Activity
[8] = tested on: MDA-MB-468; experiment: Growth inhibition of human MDA-MB-468 cells assessed as cell growth at 10^-5 M after 48 hrs by sulforhodamine B assay; details: MDA-MB-468, 48 h, read-out: Activity
[9] = tested on: SK-OV-3; experiment: Growth inhibition of human SKOV3 cells assessed as cell growth at 10^-5 M after 48 hrs by sulforhodamine B assay; details: SK-OV-3, 48 h, read-out: Activity
[10] = tested on: SK-MEL-28; experiment: Growth inhibition of human SK-MEL-28 cells assessed as cell growth at 10^-6 M after 48 hrs by sulforhodamine B assay; details: SK-MEL-28, 48 h, read-out: Activity
[11] = tested on: SK-OV-3; experiment: Growth inhibition of human SKOV3 cells assessed as cell growth at 10^-8 M after 48 hrs by sulforhodamine B assay; details: SK-OV-3, 48 h; for growth at 0.01 µM: read-out: Activity; for TGI: read-out: pTGI (converted)
[12] = tested on: NCI-H23; experiment: Growth inhibition of human NCI-H23 cells assessed as cell growth at 10^-5 M after 48 hrs by sulforhodamine B assay; details: NCI-H23, 48 h, read-out: Activity
[13] = tested on: HL-60(TB); experiment: Growth inhibition of human HL-60(TB) cells assessed as cell growth at 10^-5 M after 48 hrs by sulforhodamine B assay; details: HL-60, 48 h, read-out: Activity
[14] = tested on: CCRF-CEM; experiment: Growth inhibition of human CCRF-CEM cells assessed as cell growth at 10^-5 M after 48 hrs by sulforhodamine B assay; details: read-out: Activity
[15] = Growth inhibition of human OVCAR8 cells assessed as cell growth at 10^-4 M after 48 hrs by sulforhodamine B assay; details: OVCAR-8, 48 h, read-out: Activity
[16] = tested on: MDA-MB-468; experiment: Growth inhibition of human MDA-MB-468 cells assessed as cell growth at 10^-8 M after 48 hrs by sulforhodamine B assay; details: MDA-MB-468, 48 h; for growth at 0.01 µM: read-out: Activity; for CC50: read-out: pLC50 (the source's name) (converted); for TGI: read-out: pTGI (converted)
[17] = Growth inhibition of human OVCAR8 cells assessed as cell growth at 10^-5 M after 48 hrs by sulforhodamine B assay; details: OVCAR-8, 48 h, read-out: Activity
[18] = tested on: HOP-62; experiment: Growth inhibition of human HOP62 cells assessed as cell growth at 10^-5 M after 48 hrs by sulforhodamine B assay; details: HOP-62, 48 h, read-out: Activity
[19] = tested on: NCI-H23; experiment: Growth inhibition of human NCI-H23 cells assessed as cell growth at 10^-7 M after 48 hrs by sulforhodamine B assay; details: NCI-H23, 48 h, read-out: Activity
[20] = Growth inhibition of human OVCAR4 cells assessed as cell growth at 10^-7 M after 48 hrs by sulforhodamine B assay; details: OVCAR-4, 48 h, read-out: Activity
[21] = tested on: SW-620; experiment: Growth inhibition of human SW620 cells assessed as cell growth at 10^-4 M after 48 hrs by sulforhodamine B assay; details: SW-620, 48 h, read-out: Activity
[22] = tested on: A549; experiment: Growth inhibition of human A549/ATCC cells assessed as cell growth at 10^-5 M after 48 hrs by sulforhodamine B assay; details: A549, 48 h, read-out: Activity
[23] = tested on: MCF7; experiment: Growth inhibition of human MCF7 cells assessed as cell growth at 10^-4 M after 48 hrs by sulforhodamine B assay; details: MCF7, 48 h, read-out: Activity
[24] = tested on: SNB-75; experiment: Growth inhibition of human SNB75 cells assessed as cell growth at 10^-4 M after 48 hrs by sulforhodamine B assay; details: SNB-75, 48 h, read-out: Activity
[25] = tested on: PC-3; experiment: Growth inhibition of human PC3 cells after 48 hrs by sulforhodamine B assay; details: PC-3, 48 h; for CC50: read-out: LC50 (the source's name)
[26] = tested on: SR; experiment: Growth inhibition of human SR cells assessed as cell growth at 10^-5 M after 48 hrs by sulforhodamine B assay; details: read-out: Activity
[27] = tested on: MCF7; experiment: Growth inhibition of human MCF7 cells assessed as cell growth at 10^-7 M after 48 hrs by sulforhodamine B assay; details: MCF7, 48 h, read-out: Activity
[28] = tested on: NCI-H322M; experiment: Growth inhibition of human NCI-H322M cells assessed as cell growth at 10^-5 M after 48 hrs by sulforhodamine B assay; details: read-out: Activity
[29] = Growth inhibition of human UACC62 cells assessed as cell growth at 10^-5 M after 48 hrs by sulforhodamine B assay; details: UACC-62, 48 h, read-out: Activity
[30] = Growth inhibition of human HCC2998 cells assessed as cell growth at 10^-6 M after 48 hrs by sulforhodamine B assay; details: HCC 2998, 48 h, read-out: Activity
[31] = tested on: SNB-75; experiment: Growth inhibition of human SNB75 cells assessed as cell growth at 10^-5 M after 48 hrs by sulforhodamine B assay; details: SNB-75, 48 h, read-out: Activity
[32] = tested on: PC-3; experiment: Growth inhibition of human PC3 cells assessed as cell growth at 10^-7 M after 48 hrs by sulforhodamine B assay; details: PC-3, 48 h, read-out: Activity
[33] = tested on: HT-29; experiment: Growth inhibition of human HT-29 cells assessed as cell growth at 10^-5 M after 48 hrs by sulforhodamine B assay; details: HT-29, 48 h, read-out: Activity
[34] = Growth inhibition of human MOLT4 cells assessed as cell growth at 10^-5 M after 48 hrs by sulforhodamine B assay; details: MOLT-4, 48 h, read-out: Activity
[35] = tested on: COLO 205; experiment: Growth inhibition of human COLO205 cells assessed as cell growth at 10^-6 M after 48 hrs by sulforhodamine B assay; details: COLO 205, 48 h, read-out: Activity
[36] = Growth inhibition of human Hs 578T cells assessed as cell growth at 10^-5 M after 48 hrs by sulforhodamine B assay; details: read-out: Activity

O=C1/C(=C/c2ccc(Cl)cc2Cl)CN(S(=O)(=O)c2ccccc2)C/C1=C\c1ccc(Cl)cc1Cl
GI50 [1]: 380 nM
growth at 0.01 µM [1]: 102%
CC50 [1]: 4570 nM
TGI [1]: 1350 nM
GI50 [2]: 874 nM
TGI [2]: 4560 nM
CC50 [2]: > 100000 nM
growth at 10 µM [3]: 4%
growth at 10 µM [4]: -25%
Activity [5]: 66%
growth at 10 µM [6]: -51%
growth at 10 µM [7]: 17%
growth at 10 µM [8]: -38%
growth at 10 µM [9]: 44%
growth at 1 µM [10]: 93%
GI50 [11]: 7940 nM
LC50 [11]: > 100000 nM
growth at 0.01 µM [11]: 109%
TGI [11]: > 100000 nM
growth at 10 µM [12]: -37.6%
growth at 10 µM [13]: -24%
growth at 10 µM [14]: -14%
growth at 100 µM [15]: -14%
GI50 [16]: 1120 nM
growth at 0.01 µM [16]: 90%
CC50 [16]: > 100000 nM
TGI [16]: 3890 nM
growth at 10 µM [17]: -9%
growth at 10 µM [18]: -2.25%
growth at 0.1 µM [19]: 104%
growth at 0.1 µM [20]: 82%
growth at 100 µM [21]: -27%
growth at 10 µM [22]: -43%
growth at 100 µM [23]: 9%
growth at 100 µM [24]: -33%
GI50 [25]: 291 nM
TGI [25]: 1030 nM
CC50 [25]: > 100000 nM
growth at 10 µM [26]: -11.6%
growth at 0.1 µM [27]: 84%
growth at 10 µM [28]: -29%
growth at 10 µM [29]: -79%
growth at 1 µM [30]: 13%
growth at 10 µM [31]: -6%
growth at 0.1 µM [32]: 93%
growth at 10 µM [33]: -27.5%
growth at 10 µM [34]: -2%
growth at 1 µM [35]: 16%

Cc1ccc(S(=O)(=O)N2C/C(=C\c3cc(F)cc(F)c3)C(=O)/C(=C/c3cc(F)cc(F)c3)C2)cc1
GI50 [1]: 603 nM
growth at 0.01 µM [1]: 102%
CC50 [1]: 4900 nM
TGI [1]: 1910 nM
GI50 [2]: 246 nM
TGI [2]: 622 nM
CC50 [2]: 2390 nM
growth at 10 µM [3]: -65%
growth at 10 µM [4]: -51%
growth at 10 µM [36]: 8%
Activity [5]: 70%
growth at 10 µM [6]: -84%
growth at 10 µM [7]: -68%
growth at 10 µM [8]: -73%
growth at 10 µM [9]: -26%
growth at 1 µM [10]: 29%
GI50 [11]: 1820 nM
LC50 [11]: 37200 nM
growth at 0.01 µM [11]: 103%
TGI [11]: 5620 nM
growth at 10 µM [12]: -33%
growth at 10 µM [13]: -14%
growth at 10 µM [14]: -23%
growth at 100 µM [15]: -71%
GI50 [16]: 347 nM
growth at 0.01 µM [16]: 90%
CC50 [16]: 5750 nM
TGI [16]: 1700 nM
growth at 10 µM [17]: -44%
growth at 10 µM [18]: -60%
growth at 0.1 µM [19]: 100%
growth at 0.1 µM [20]: 93%
growth at 100 µM [21]: -74%
growth at 10 µM [22]: 7%
growth at 100 µM [23]: -72%
growth at 100 µM [24]: -86%
GI50 [25]: 248 nM
TGI [25]: 803 nM
CC50 [25]: 9280 nM
growth at 10 µM [26]: -21%
growth at 0.1 µM [27]: 62%
growth at 10 µM [28]: 25%
growth at 10 µM [29]: -96%
growth at 1 µM [30]: 35%
growth at 10 µM [31]: -41.6%
growth at 0.1 µM [32]: 89%
growth at 10 µM [33]: -78%
growth at 10 µM [34]: -17%
growth at 1 µM [35]: 35%
